Data taken from ChEMBL document CHEMBL5604062, “ASAP - ZIKV NS2B-NS3 protease fluorescence dose response” (2024).
pIC50: −log10 of the molar value. “And” between values parts separate entries of the source, which are not always exact repeats. Equal values may be shown once.

Each compound was assayed against Nonstructural protein 3 (Zika virus, UniProt A0A024AXB9) (assay: Functional biochemical assay to identify treatments for viral infectious disease that targets Zika NS2B-NS3 protease. Utilizing a direct enzyme activity measurement method, reading the fluorescence intensity is used to characterize the relative potency of inhibitors as IC50.).
Set-up: species or system PRVABC59

Sequence of Nonstructural protein 3 (A0A024AXB9 whole entry): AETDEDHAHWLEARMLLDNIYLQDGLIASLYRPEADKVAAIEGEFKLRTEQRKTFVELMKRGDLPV

SMILES | pIC50 | IC50
O=C(Nc1cc(Cl)cc(C(=O)NC[C@H]2CNC3(CC3)CO2)c1)OCc1ccccc1 | < 4.00 | 
O=C(Nc1ccc2c(c1)CNC2)c1cc(F)cc2[nH]ncc12 | 7.40 and 7.31 | 
CC(=O)N1CCN([C@H]2CC[C@H](NS(=O)(=O)c3ccc(Cl)cc3C(=O)O)CC2)CC1 | < 4.00 | 
NCc1cccc(N[C@H](C#CCO)c2cc(Cl)cc(NC(=O)OCc3ccccc3)c2)c1 | 4.75 | 
CC(C)Oc1cc(COc2cccnc2F)nc(N2CCNCC2)n1 | < 4.00 | 
CC(C)(C)OC(=O)NCc1ccc(I)c(NC(=O)c2cc(Cl)cc(NC(=O)OCc3ccccc3)c2)c1 | < 4.00 | 
O=C(Nc1ccc2c(c1)CNC2)c1cc(F)cc2[nH]c(-c3ccccc3F)nc12 |  | 23 nM (2×) and 13 nM
NCc1cccc(NC(=O)[C@H](NC(=O)OCc2ccccc2)c2cccc(OCC3CCOCC3)c2)c1 | < 4.00 | 
Cc1cc(C(=O)Nc2ccc3c(c2)CNC3)cc2nn[nH]c12 | 5.48 | 
CN1CC=C(c2ccc(S(=O)(=O)Nc3ccc(Cl)cc3C(=O)O)cc2)CC1 | < 4.00 | 
CN(C)Cc1ccc(N2CCN(Cc3c[nH]c4ccccc34)CC2)nc1 | < 4.00 | 
O=C(Nc1cc(Cl)cc(-c2cccc3c(C(=O)O)cccc23)c1)OCc1ccccc1 | 4.64 | 
C=CC[C@H]1NCc2cc(NCc3cc(Cl)cc4[nH]ncc34)ccc21 | < 4.60 | 
NCc1cccc(NC(=O)[C@@H](NC(=O)OCc2ccccc2)c2cccc(F)c2F)c1 | < 4.00 | 
Cc1ccc(C(=O)N[C@H](C(=O)Nc2cccc(CN)c2)c2ccc(OCc3ccccc3)cc2)s1 | 4.22 | 
O=C1Cc2c(cccc2C(=O)N[C@H]2C[C@H](OC(F)F)C2)N1 | < 4.60 | 
O=C(NC[C@H]1CCCO1)c1cc(Cl)ccc1NS(=O)(=O)c1ccc(Oc2ccccc2Cl)cc1 | < 4.00 | 
CCC[C@H](C)N1Cc2ccc(NC(=O)c3cc(Cl)cc4[nH]ncc34)cc2C1 | 5.50 | 
NCc1ccccc1NC(=O)c1cc(Cl)cc(NC(=O)OCc2ccccc2)c1 | < 4.00 | 
C[C@@H](O)c1cccc(N2CCC(c3nc(N)ncc3F)CC2)n1 | < 4.00 | 
NCCc1ccc(NC(=O)c2cc(Cl)cc3[nH]ncc23)cc1 | 5.42 | 
CCNC(=O)Nc1cc(Cl)cc(C(=O)Nc2cccc(CN)c2)c1 | 6.18 | 
C[C@H](C(=O)O)N(C)C(=O)c1cc(Cl)cc(NC(=O)OCc2ccccc2)c1 | < 4.00 | 
NCc1cccc(NC(=O)[C@@H](NS(=O)(=O)c2ccccc2F)c2ccc(OCc3ccccc3)cc2)c1 | 4.00 | 

SMILES | pIC50 | IC50
Cc1c(C(=O)Nc2cc(C(=O)N3C[C@@H]4[C@H](O)[C@@H]4C3)ccn2)cc(C2CC2)n1C | < 4.60 | 
NCc1cccc(NC(=O)[C@H](NC(=O)OCc2ccccc2)c2ccc(OCc3ccccc3)cc2)c1 | 5.16 | 
CC(=O)N[C@H](C(=O)N[C@H]1C(=O)O[C@H]1C)c1ccc(OCc2ccccc2)cc1 | < 4.00 | 
O=C(Nc1cc(Cl)cc(C(=O)Nc2cccc([C@H]3CCCCN3)c2)c1)OCc1ccccc1 | 4.24 | 
O=C(Nc1cc(Cl)cc(C(=O)Nc2ccc3c(c2)CCNC3)c1)OCc1ccccc1 | 5.83 | 
O=C(NCc1cc(Cl)ccc1NS(=O)(=O)c1ccc(Oc2ccccc2Cl)cc1)C1CC1 | < 4.00 | 
C=CCNC(=O)C1(NC(=O)c2cccc3c2CC(=O)N3)CCCCC1 | < 4.60 | 
O=C(Nc1ccc(-n2nn[nH]c2=O)cc1)c1cc(Cl)cc(C2CC2)c1 | < 4.00 | 
CNC(=O)[C@]1(Nc2ccc3c(c2)CNC3)C(=O)Nc2c(OC)cc(Br)cc21 | 4.27 | 
c1cnc2c(C3CCN(Cc4c[nH]c5ncccc45)CC3)c[nH]c2c1 | < 4.00 | 
O=C(Nc1cc([C@H]2CCOC2)ccn1)c1cc(Br)cc2[nH]ccc12 | < 4.60 | 
N[C@H]1COC[C@H]1n1cc(C(=O)Nc2cc(-c3cccnc3)ccn2)cn1 | < 4.60 | 
COC(=O)C(C)(C)NC(=O)[C@H](Nc1ccc2c(c1)CNC2)c1cc(Cl)cc(C2CC2)c1 | 5.05 | 
O=C(O)c1cc2cc(-c3cc(Cl)cn4ncnc34)ccc2[nH]1 | < 4.00 | 
COCc1cc(Cl)ccc1NS(=O)(=O)c1ccc(Oc2ccccc2Cl)cc1 | < 4.00 | 
N#C[C@]1(Nc2ccc3c(c2)CNC3)C(=O)Nc2ccc(Cl)cc21 | 5.81 | 
N#C[C@H](Nc1ccc(-c2nn[nH]n2)cc1)c1cc(Cl)cc(NC(=O)OCc2ccccc2)c1 | 4.72 | 
NCc1cccc(NC(=O)[C@@H](NC(=O)OCc2ccccc2)c2cccc(OCC3CCC3)c2)c1 | 4.56 | 
NCc1cccc(N[C@H](CCCO)c2cc(Cl)cc(NC(=O)OCc3ccccc3)c2)c1 | 4.21 | 
O=C(O)Cc1cc(NS(=O)(=O)c2ccc(Oc3ccccc3Cl)cc2)ccc1Cl | < 4.00 | 
O=C(N[C@@H](C(=O)NCc1cccnc1)c1ccc(OCc2ccccc2)cc1)OCc1ccccc1 | < 4.00 | 
O=C(Nc1ccc2c(c1)CNC2)c1cccc2nc(C(F)(F)F)[nH]c12 | 5.40 | 
Cc1c(C(=O)Nc2ccc3c(c2)CNC3)cc(C2CC2)n1C | 4.80 | 
CC(C)[C@H](NC(=O)c1cc(Cl)cc(NC(=O)OCc2ccccc2)c1)c1nn[nH]n1 | < 4.00 | 

The next lines start with the values.

pIC50 | IC50 | SMILES
6.74 |  | COc1ccc(S(=O)(=O)n2nc(OC(=O)c3cccc(-c4ccccc4Cl)c3)cc2N)cc1
< 4.00 |  | O=C(Nc1cccc(-c2nnn[nH]2)c1)c1cc(Cl)cc2[nH]ncc12
< 4.60 |  | Cn1nc(C2CC2)cc1C(=O)Nc1cc(CCCN)ccn1
< 4.00 |  | COc1ccc(S(=O)(=O)Nc2ccc(Cl)cc2C(=O)O)cc1
< 4.00 |  | Cn1ccc(Nc2ccc(S(=O)(=O)Nc3ccc(Cl)cc3C(=O)O)cn2)n1
< 4.00 |  | Cc1ccc(NS(=O)(=O)c2ccc(Oc3ccccc3Cl)cc2)cc1CN
< 4.00 |  | Cn1ccc(COc2ccc([C@@H](NC(=O)OCc3ccccc3)C(=O)Nc3cccc(CN)c3)cc2)n1
< 4.00 |  | CCNC(=O)Nc1cc(Cl)cc(C(=O)Nc2cccc(-n3nn[nH]c3=O)c2)c1
5.51 |  | CC(C)(C)NC(=O)[C@H](Nc1ccc2c(c1)CNC2)c1cc(Cl)cc2[nH]ncc12
4.80 |  | O=C(Nc1cc(Cl)cc(C(=O)Nc2ccc(N3CCNCC3)c(F)c2)c1)OCc1ccccc1
< 4.60 |  | O=C(Nc1cc(-c2cccnc2)ccn1)c1coc(C2CC2)n1
4.08 |  | NCc1cccc(NC(=O)[C@H](NC(=O)OCc2ccccc2)c2cccc(-c3ccc(S(N)(=O)=O)cc3)c2)c1
4.91 |  | NCc1cccc(NC(=O)[C@@H](NC(=O)OCc2ccccc2)c2ccc(-c3ccc4scnc4c3)cc2)c1
4.36 |  | NCc1cccc(NC(=O)[C@@H](NC(=O)OCc2ccccc2)c2cccc(-c3ccc(N)nc3)c2)c1
< 4.00 |  | CCn1c(=O)c(N2CC[C@H](CO)C2)nc2ccc(C(=O)OC)cc21
< 4.60 |  | Cn1c(C2CC2)cc(C(=O)Nc2cc(-c3cccnc3)ccn2)c1C1CC1
4.04 |  | O=C(O)c1cc2cc(-c3cc(Cl)c4[nH]c(=O)oc4c3)ccc2[nH]1
< 4.00 |  | O=C(NCCO)c1cc(Cl)ccc1NS(=O)(=O)c1ccc(Oc2ccccc2Cl)cc1
< 4.00 |  | O=C(O)c1nc(Cc2c[nH]c3ccc(Cl)cc23)c2ccccn12
7.16 and 7.19 |  | O=C(NCC(F)F)[C@H](Nc1ccc2c(c1)CNC2)c1cc(Cl)cc(Cl)c1Cl
6.02 |  | O=C1CCc2c(cccc2C(=O)Nc2ccc3c(c2)CNC3)N1
< 4.00 |  | C[C@H]1C[C@@H](C(=O)Nc2cccc(CN)c2)CCO1
< 4.00 |  | CN1CCC[C@H]1COc1ccc([C@@H](NC(=O)OCc2ccccc2)C(=O)Nc2cccc(CN)c2)cc1
< 4.00 |  | Cn1ccnc1C(=O)N1CCC([C@H](NC(=O)OCc2ccccc2)C(=O)Nc2cccc(CN)c2)CC1
4.08 |  | O=C(Nc1cc(Cl)cc([C@H]2[C@H](CO)[C@@H]2c2cccc(-c3nn[nH]n3)c2)c1)OCc1ccccc1
4.39 |  | O=C(O)c1cc2cc(-c3cc(Cl)cc4ncccc34)ccc2[nH]1

pIC50 | IC50 | SMILES
< 4.00 |  | Cc1c(C(=O)Nc2cccc(C3CCNCC3)c2)cc(C2CC2)n1C
4.86 |  | O=C(Nc1ccc2c(c1)CNC2)c1ccc2ccncc2c1
< 4.00 |  | O=C(Nc1cc(Cl)cc(C(=O)Nc2cccc(CO)c2)c1)OCc1ccccc1
< 4.00 |  | COc1cnccc1NC(=O)c1cccn(CC(C)C)c1=O
< 4.60 |  | O=C1Cc2c(cccc2C(=O)NC2CC3(CCOCC3)C2)N1
< 4.00 |  | NCc1cccc(NC(=O)[C@@H](NC(=O)OCc2ccccc2)C2CCN(Cc3cn[nH]c3)CC2)c1
4.82 and 4.67 |  | NCc1cccc(NC(=O)[C@H](NC(=O)CCc2ccccc2)c2ccc(OCc3ccccc3)cc2)c1
4.28 |  | O=C(Nc1cc(Cl)cc(N[C@H](C#CCO)c2ccc(-c3nn[nH]n3)cc2)c1)OCc1ccccc1
7.24 and 7.43 |  | O=C(NCC(F)F)[C@H](Nc1ccc2c(c1)CNC2)c1cc(F)cc2[nH]ncc12
4.56 |  | O=C(Nc1cc(Cl)cc(CNc2cccc(-c3nn[nH]n3)c2)c1)OCc1ccccc1
< 4.00 |  | Cc1ccc(Sc2ncccc2C(=O)Nc2cccc(CN)c2)cc1C
< 4.00 |  | CCCCS(=O)(=O)N1CCC([C@H](NC(=O)OCc2ccccc2)C(=O)Nc2cccc(CN)c2)CC1
< 4.00 |  | CCn1c(=O)c(N2CC[C@H](c3cnccn3)C2)nc2ccccc21
< 4.60 |  | O=C1OCc2ccc(NC(=O)[C@H]3CCNC34CCCC4)cc21
< 4.60 |  | Cc1c(C(=O)Nc2ccc3c(c2)C(=O)N(C)C3)cc(C2CC2)n1C
< 4.00 |  | Cn1cc(C(=O)N2CCC([C@H](NC(=O)OCc3ccccc3)C(=O)Nc3cccc(CN)c3)CC2)cn1
4.39 |  | O=C(Nc1cc(Cl)cc(C(=O)Nc2cccc(-c3nnn[nH]3)c2)c1)OCc1ccccc1
< 4.00 |  | O=C(Nc1cc(Cl)cc(C(=O)Nc2ccc3c(c2)C(=O)OC3)c1)OCc1ccccc1
< 4.00 |  | O=C(Nc1cc(Cl)cc(C(=O)Nc2ccc3c(c2)C[C@H](F)C3)c1)OCc1ccccc1
< 4.00 |  | FC1(c2cccnc2)CN(Cc2c[nH]c3ccccc23)C1
4.16 |  | NCc1cccc(NC(=O)[C@@H](NC(=O)OCc2ccccc2)c2ccc(C3=CCCOC3)cc2)c1
< 4.00 |  | O=C1Cc2cc(NC(=O)c3cc(Cl)cc4[nH]ncc34)ccc2N1
< 4.00 |  | Cn1cc(C(=O)Nc2cccc(CN)c2)c(-c2cnccn2)n1
4.79 |  | COc1cc(NS(=O)(=O)c2ccc(Oc3ccccc3Cl)cc2)c(C(=O)O)cc1Cl
4.53 |  | O=C(O)c1cc(Cl)ccc1NS(=O)(=O)c1ccc(-c2ccccc2F)cc1
< 4.60 |  | CC1(C)C[C@H](C(=O)Nc2ccc3c(c2)C(=O)OC3)CCN1
